Measurements from patent US8741836B2, “Polypeptides” (Novo Nordisk A/S, priority 2011, dated 2014).
Starred links: 1 amine or outer side, 2 acyl side, 3 side chain; linkers in the order of their positions; H or OH if unused. Positions of bridges follow the written chain, without caps; N, C: chain ends. Residues, ends and D or L forms follow the SMILES beside them. Groups on a side chain read outwards from the residue. *: point of attachment. C20 diacid = O=C(O)CCCCCCCCCCCCCCCCCCC(=O)*; C18 diacid = O=C(O)CCCCCCCCCCCCCCCCC(=O)*; γGlu = O=C(O)[C@H](CCC(=O)[*:2])N[*:1]

Experiments:
[1] = Assay (III) ThT fibrillation assay for physical stability; type: physicochemical; conditions: for ThT pH 4.0 lag time: pH 4.0, ThT fibrillation assay
Summary of the method: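 Freshly prepared, pH-adjusted formulations with 1 μM ThT incubated at 37 °C under 960 rpm orbital shaking (1 mm), fluorescence (ex 444, em 485 nm) read every 20 min. […] Peptide content before and after measured by reverse-phase HPLC against pramlintide standard.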

[2] = test system: ad libitum fed rat; assay: Assay (I) efficacy testing on appetite (food intake) using an ad libitum fed rat model; type: in vivo, Sprague Dawley (SD) rats
Summary of the method: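 Ad libitum fed Sprague Dawley rats, 200-250 g, singly housed on reversed light cycle, got one ip, po or sc dose of 0.01-3 mg/kg just before lights off; groups of 5-8 with vehicle control. Food intake recorded hourly for 7 h, then at 24 h and sometimes 48 h; Grubbs outliers excluded.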

| Structure (SMILES) | ThT pH 4.0 lag time [1] | Food intake reduction 0-24 h 30 nmol/kg (%) ([2]; 30 nmol/kg, 0-24 h) | Food intake reduction 24-48 h 30 nmol/kg (%) ([2]; 30 nmol/kg, 24-48 h) | ThT pH 4.0 lag time (physical stability in fibrillogenesis assay) [1] | Food intake reduction 0-24 h 3 nmol/kg (%) ([2]; 0-24 h) | Food intake reduction 24-48 h 3 nmol/kg (%) ([2]; 24-48 h) |
| --- | --- | --- | --- | --- | --- | --- |
| CC[C@H](C)[C@H](NC(=O)[C@@H]1CCCN1C(=O)CNC(=O)[C@H](Cc1ccccc1)NC(=O)[C@H](CC(N)=O)NC(=O)[C@H](CC(N)=O)NC(=O)[C@H](CO)NC(=O)[C@H](CO)NC(=O)[C@H](Cc1c[nH]cn1)NC(=O)[C@H](CCCNC(=N)N)NC(=O)[C@H](CC(C)C)NC(=O)[C@H](Cc1ccccc1)NC(=O)[C@H](CCC(=O)O)NC(=O)[C@H](C)NC(=O)[C@H](CC(C)C)NC(=O)[C@H](CCCNC(=N)N)NC(=O)[C@H](CCC(N)=O)NC(=O)[C@@H](NC(=O)[C@H](C)NC(=O)[C@@H]1CSSC[C@H](NC(=O)[C@H](Cc2c[nH]cn2)NC(=O)[C@H](Cc2c[nH]cn2)NC(=O)[C@H](Cc2c[nH]cn2)NC(=O)CC[C@H](NC(=O)CCCCCCCCCCCCCCCCCCC(=O)O)C(=O)O)C(=O)N[C@@H](CC(N)=O)C(=O)N[C@@H]([C@@H](C)O)C(=O)N[C@@H](C)C(=O)N[C@@H]([C@@H](C)O)C(=O)N1)[C@@H](C)O)C(=O)N[C@@H](CC(C)C)C(=O)N1CCC[C@H]1C(=O)N1CCC[C@H]1C(=O)N[C@H](C(=O)N[C@@H](CC(N)=O)C(=O)N[C@H](C(=O)NCC(=O)N[C@@H](CO)C(=O)N[C@@H](CC(N)=O)C(=O)N[C@H](C(=O)N[C@@H](Cc1ccc(O)cc1)C(N)=O)[C@@H](C)O)C(C)C)[C@@H](C)O [Example 12, N-alpha-[(S)-4-Carboxy-4-(19-carboxynonadecanoylamino)butyryl]-His-His-[His1,Glu14,Arg17]-pramlintide] ({C20 diacid-γGlu}-HHHCNTATCATQRLAEFLRHSSNNFGPILPPTNVGSNTY-NH2; disulfide 4-9 (inferred)) | >45 h | 70% | 45% | – | – | – |
| CC[C@H](C)[C@H](NC(=O)[C@@H]1CCCN1C(=O)CNC(=O)[C@H](Cc1ccccc1)NC(=O)[C@H](CC(N)=O)NC(=O)[C@H](CC(N)=O)NC(=O)[C@H](CO)NC(=O)[C@H](CO)NC(=O)[C@H](Cc1c[nH]cn1)NC(=O)[C@H](Cc1c[nH]cn1)NC(=O)[C@H](CC(C)C)NC(=O)[C@H](Cc1ccccc1)NC(=O)[C@H](CCC(=O)O)NC(=O)[C@H](C)NC(=O)[C@H](CC(C)C)NC(=O)[C@H](CCCNC(=N)N)NC(=O)[C@H](CCC(N)=O)NC(=O)[C@@H](NC(=O)[C@H](C)NC(=O)[C@@H]1CSSC[C@H](NC(=O)[C@H](CCCCN)NC(=O)CC[C@H](NC(=O)CCCCCCCCCCCCCCCCC(=O)O)C(=O)O)C(=O)N[C@@H](CC(N)=O)C(=O)N[C@@H]([C@@H](C)O)C(=O)N[C@@H](C)C(=O)N[C@@H]([C@@H](C)O)C(=O)N1)[C@@H](C)O)C(=O)N[C@@H](CC(C)C)C(=O)N1CCC[C@H]1C(=O)N1CCC[C@H]1C(=O)N[C@H](C(=O)N[C@@H](CC(N)=O)C(=O)N[C@H](C(=O)NCC(=O)N[C@@H](CO)C(=O)N[C@@H](Cc1c[nH]cn1)C(=O)N[C@H](C(=O)N[C@@H](Cc1ccc(O)cc1)C(N)=O)[C@@H](C)O)C(C)C)[C@@H](C)O [Example 59, N-alpha-[(S)-4-Carboxy-4-(17-carboxyheptadecanoylamino)butyryl]-[Glu14,His17,His35]-pramlintide] ({C18 diacid-γGlu}-KCNTATCATQRLAEFLHHSSNNFGPILPPTNVGSHTY-NH2; disulfide 2-7) | >45 h | – | – | >45 h | 59% | 27% |
| CC[C@H](C)[C@H](NC(=O)[C@@H]1CCCN1C(=O)CNC(=O)[C@H](Cc1ccccc1)NC(=O)[C@H](CC(N)=O)NC(=O)[C@H](CC(N)=O)NC(=O)[C@H](CO)NC(=O)[C@H](CO)NC(=O)[C@H](Cc1c[nH]cn1)NC(=O)[C@H](CCCNC(=N)N)NC(=O)[C@H](CC(C)C)NC(=O)[C@H](Cc1ccccc1)NC(=O)[C@H](CCC(=O)O)NC(=O)[C@H](C)NC(=O)[C@H](CC(C)C)NC(=O)[C@H](CCCNC(=N)N)NC(=O)[C@H](CCC(N)=O)NC(=O)[C@@H](NC(=O)[C@H](C)NC(=O)[C@@H]1CSSC[C@H](NC(=O)[C@H](CCCCN)NC(=O)CC[C@H](NC(=O)CCCCCCCCCCCCCCCCCCC(=O)O)C(=O)O)C(=O)N[C@@H](CC(N)=O)C(=O)N[C@@H]([C@@H](C)O)C(=O)N[C@@H](C)C(=O)N[C@@H]([C@@H](C)O)C(=O)N1)[C@@H](C)O)C(=O)N[C@@H](CC(C)C)C(=O)N1CCC[C@H]1C(=O)N1CCC[C@H]1C(=O)N[C@H](C(=O)N[C@@H](CC(N)=O)C(=O)N[C@H](C(=O)NCC(=O)N[C@@H](CO)C(=O)N[C@@H](Cc1c[nH]cn1)C(=O)N[C@H](C(=O)N[C@@H](Cc1ccc(O)cc1)C(N)=O)[C@@H](C)O)C(C)C)[C@@H](C)O [Example 57, N-alpha-[(S)-4-Carboxy-4-(19-carboxynonadecanoylamino)butyryl]-[Glu14,Arg17,His35]-pramlintide] ({C20 diacid-γGlu}-KCNTATCATQRLAEFLRHSSNNFGPILPPTNVGSHTY-NH2; disulfide 2-7 (inferred)) | >45 h | – | – | – | 17% | 0% |
| CC[C@H](C)[C@H](NC(=O)[C@@H]1CCCN1C(=O)CNC(=O)[C@H](Cc1ccccc1)NC(=O)[C@H](CC(N)=O)NC(=O)[C@H](CC(N)=O)NC(=O)[C@H](CO)NC(=O)[C@H](CO)NC(=O)[C@H](Cc1c[nH]cn1)NC(=O)[C@H](Cc1c[nH]cn1)NC(=O)[C@H](CC(C)C)NC(=O)[C@H](Cc1ccccc1)NC(=O)[C@H](CCC(=O)O)NC(=O)[C@H](C)NC(=O)[C@H](CC(C)C)NC(=O)[C@H](CCCNC(=N)N)NC(=O)[C@H](CCC(N)=O)NC(=O)[C@@H](NC(=O)[C@H](C)NC(=O)[C@@H]1CSSC[C@H](NC(=O)[C@@H](N)CCCCNC(=O)CC[C@H](NC(=O)CCCCCCCCCCCCCCCCCCC(=O)O)C(=O)O)C(=O)N[C@@H](CC(N)=O)C(=O)N[C@@H]([C@@H](C)O)C(=O)N[C@@H](C)C(=O)N[C@@H]([C@@H](C)O)C(=O)N1)[C@@H](C)O)C(=O)N[C@@H](CC(C)C)C(=O)N1CCC[C@H]1C(=O)N1CCC[C@H]1C(=O)N[C@H](C(=O)N[C@@H](CC(N)=O)C(=O)N[C@H](C(=O)NCC(=O)N[C@@H](CO)C(=O)N[C@@H](Cc1c[nH]cn1)C(=O)N[C@H](C(=O)N[C@@H](Cc1ccc(O)cc1)C(N)=O)[C@@H](C)O)C(C)C)[C@@H](C)O [Example 87, N-epsilon1-[(S)-4-Carboxy-4-(19-carboxynonadecanoylamino)butyryl]-[Glu14,His17,His35]-pramlintide] (H-K([γGlu-C20 diacid])CNTATCATQRLAEFLHHSSNNFGPILPPTNVGSHTY-NH2; disulfide 2-7 (inferred); C-terminus assumed) | 25 h | – | – | – | 66% | 47% |
| CC[C@H](C)[C@H](NC(=O)[C@@H]1CCCN1C(=O)CNC(=O)[C@H](Cc1ccccc1)NC(=O)[C@H](CC(N)=O)NC(=O)[C@H](CC(N)=O)NC(=O)[C@H](CO)NC(=O)[C@H](CO)NC(=O)[C@H](Cc1c[nH]cn1)NC(=O)[C@H](CCCNC(=N)N)NC(=O)[C@H](CC(C)C)NC(=O)[C@H](Cc1ccccc1)NC(=O)[C@H](CCC(=O)O)NC(=O)[C@H](C)NC(=O)[C@H](CC(C)C)NC(=O)[C@H](CCCNC(=N)N)NC(=O)[C@H](CCC(N)=O)NC(=O)[C@@H](NC(=O)[C@H](C)NC(=O)[C@@H]1CSSC[C@H](NC(=O)[C@H](CCCCN)NC(=O)CC[C@H](NC(=O)CCCCCCCCCCCCCCCCCCC(=O)O)C(=O)O)C(=O)N[C@@H](CC(N)=O)C(=O)N[C@@H]([C@@H](C)O)C(=O)N[C@@H](C)C(=O)N[C@@H]([C@@H](C)O)C(=O)N1)[C@@H](C)O)C(=O)N[C@@H](CC(C)C)C(=O)N1CCC[C@H]1C(=O)N1CCC[C@H]1C(=O)N[C@H](C(=O)N[C@@H](CC(N)=O)C(=O)N[C@H](C(=O)NCC(=O)N[C@@H](CO)C(=O)N[C@@H](CC(N)=O)C(=O)N[C@H](C(=O)N1CCC[C@H]1C(N)=O)[C@@H](C)O)C(C)C)[C@@H](C)O [Example 53, N-alpha-[(S)-4-Carboxy-4-(19-carboxynonadecanoylamino)butyryl]-[Glu14,Arg17,Pro37]-pramlintide] | >45 h | – | – | >45 h | 40% | 28% |
| CC[C@H](C)[C@H](NC(=O)[C@@H]1CCCN1C(=O)CNC(=O)[C@H](Cc1ccccc1)NC(=O)[C@H](CC(N)=O)NC(=O)[C@H](CC(N)=O)NC(=O)[C@H](CO)NC(=O)[C@H](CO)NC(=O)[C@H](Cc1c[nH]cn1)NC(=O)[C@H](Cc1c[nH]cn1)NC(=O)[C@H](CC(C)C)NC(=O)[C@H](Cc1ccccc1)NC(=O)[C@H](CCC(=O)O)NC(=O)[C@H](C)NC(=O)[C@H](CC(C)C)NC(=O)[C@H](CCCNC(=N)N)NC(=O)[C@H](CCC(N)=O)NC(=O)[C@@H](NC(=O)[C@H](C)NC(=O)[C@@H]1CSSC[C@H](NC(=O)[C@H](CCCCN)NC(=O)CC[C@H](NC(=O)CCCCCCCCCCCCCCCCCCC(=O)O)C(=O)O)C(=O)N[C@@H](CC(N)=O)C(=O)N[C@@H]([C@@H](C)O)C(=O)N[C@@H](C)C(=O)N[C@@H]([C@@H](C)O)C(=O)N1)[C@@H](C)O)C(=O)N[C@@H](CC(C)C)C(=O)N1CCC[C@H]1C(=O)N1CCC[C@H]1C(=O)N[C@H](C(=O)N[C@@H](CC(N)=O)C(=O)N[C@H](C(=O)NCC(=O)N[C@@H](CO)C(=O)N[C@@H](CC(N)=O)C(=O)N[C@H](C(=O)N1CCC[C@H]1C(N)=O)[C@@H](C)O)C(C)C)[C@@H](C)O [Example 52, N-alpha-[(S)-4-Carboxy-4-(19-carboxynonadecanoylamino)butyryl]-[Glu14,His17,Pro37]-pramlintide] ({C20 diacid-γGlu}-KCNTATCATQRLAEFLHHSSNNFGPILPPTNVGSNTP-NH2; disulfide 2-7) | >45 h | – | – | – | 62% | 74% |
